Assay [1] concerns the target T1, human membrane folate-binding protein (mFBP) (Homo sapiens, UniProt P15328).
T1 construct: mFBP prepared from cultured KB cells (human nasopharyngeal carcinoma cells); endogenous in cells
Briefly: competitive binding assay against 3H-folic acid with mFBP prepared from KB cells. The text has this: The dissociation constant (Kd) of the preferred inhibitors of the present invention for human membrane folate-binding protein (mFBP) can be determined in a competitive binding assay using mFBP prepared from cultured KB cells (human nasopharyngeal carcinoma cells) as disclosed in U.S. Pat. No. 5,646,141, the disclosures of which is hereby incorporated by reference in its entirety.
Human membrane folate binding protein can be obtained from KB cells by methods well known in the art. KB cells are washed, sonicated for cell lysis and centrifuged to form pelleted cells. The pellet can then be stripped of endogenous bound folate by resuspension in acidic buffer (KH2PO4—KOH and 2-mercaptoethanol) and centrifuged again. The pellet is then resuspended and the protein content quantitated using the Bradford method with bovine serum albumin (BSA) as standard.
Disassociation constants are determined by allowing, the test inhibitor to compete against ^3H-folic acid for binding to mFBP. Reaction mixtures are designed to generally contain mFBP, ^3H-folic acid, and various concentrations of the subject test inhibitor in acidic buffer (KH2PO4—KOH and 2-mercaptoethanol). The competition reaction is typically conducted at 25°. Because of the slow nature of release of bound ^3H-folic acid, the test inhibitor may be prebound prior to addition of bound ^3H-folic acid, after which the reaction should be allowed to equilibriate. The full reaction mixtures then should be drawn through nitrocellulose filters to isolate the cell membranes with bound ^3H-folic acid. The trapped mFBP are then washed and measured by scintillation counting. The data can then be nonlinearly fitted as described above in determining Ki. The mFBP Kd for ^3H-folic acid, used for calculating the competitor Kd, can be obtained by directly titrating mFBP with ^3H-folate. The mFBP Kd can then be used to calculate the competitor Kd by nonlinear fitting of the data to an equation for tight-binding Kc. Table 1 below provides the Kd values of several GARFT inhibitors using the assay described above.

Assay [2] concerns MTAP-competent NCI-H460 cells. Briefly: MTT growth inhibition by Compound 1 or 3 with and without MTA. It is filed as cell-based, human. The note with it: FIG. 7. As to the method:
Cells were plated in columns 2-12 of a 96-well microtiter plate, with column 2 designated as the vehicle control. The same volume of medium was added to column 1. Column 1 was designated as the media control. After a 4-hour incubation, the cells were treated with Compound 7, with or without a non-growth inhibitory concentration of MTA, in quadruplicate wells. […] MTT (4,5-dimethylthiazol-2-yl)-2,5-diphenyl tetrazolium bromide; Sigma, St. Louis, Mo.) was added to a final concentration of 0.25-1 mg/ml in each well, and the plates were incubated for 4 hours. The liquid was removed from each well. DMSO was added to each well, then the plates were vortexed slowly in the dark for 7-20 minutes. The formazin product was quantified spectrophotometrically at […] on a Molecular Devices Vmax™ kinetic microplate reader.

The next assay deals with T2, Human MTAP (Homo sapiens, UniProt Q13126).
T2 construct: six-histidine tag (His6) (N); made in house; host or cells: E. coli BL21 DE3
T2 sequence (Q13126 1-283): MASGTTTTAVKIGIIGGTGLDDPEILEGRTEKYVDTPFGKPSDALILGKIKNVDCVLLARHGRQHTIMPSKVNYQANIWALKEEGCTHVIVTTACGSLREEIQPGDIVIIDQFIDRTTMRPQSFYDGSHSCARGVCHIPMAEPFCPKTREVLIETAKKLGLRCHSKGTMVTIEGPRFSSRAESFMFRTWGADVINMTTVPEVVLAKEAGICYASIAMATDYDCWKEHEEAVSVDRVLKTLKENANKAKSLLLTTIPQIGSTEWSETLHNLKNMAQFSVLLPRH
Briefly: MTAP substrate assay, coupled spectrophotometric (adenine, xanthine oxidase). The class given is biochemical. The note with it: 2 nM MTAP; for activity at 50 µM: 10 min, compound 50 uM, relative to MTA at 50 uM, read-out: MT-A—50: initial velocity as a percentage of the initial velocity with MTA as substrate; for MT-A—10: initial velocity as a percentage of the initial velocity with MTA as substrate: compound 10 uM, relative to MTA at 10 uM. The method, boiled down:
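Detection was xanthine oxidase-coupled (0.8 units/ml), reading adenine-derived absorbance at 305 nm over 10 min in potassium phosphate/DTT buffer at 37° C, with N-His6 enzyme purified from E. coli.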

This is an account of results in patent US20040043959A1, “Combination therapies for treating methylthioadenosine phosphorylase deficient cells” (priority 2002, published 2004).

For orientation: Kd means the constant that tells how readily two partners part at equilibrium. A higher Kd goes with lower affinity.

T1 sequence (P15328 25-234): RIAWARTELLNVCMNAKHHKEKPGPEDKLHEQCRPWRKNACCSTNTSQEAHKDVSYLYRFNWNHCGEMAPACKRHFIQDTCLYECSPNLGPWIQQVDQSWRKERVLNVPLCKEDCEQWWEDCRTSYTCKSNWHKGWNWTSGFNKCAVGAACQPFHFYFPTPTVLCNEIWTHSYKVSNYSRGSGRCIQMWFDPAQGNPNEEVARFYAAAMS

Take `Cc1cc(C(=O)N[C@@H](CCC(=O)O)C(=O)O)sc1CC[C@@H]1CNc2nc(N)[nH]c(=O)c2S1` [Compound 4, 4-[2-(2-Amino-4-oxo-4,6,7,8-tetraydro-3H-pyrimido[5,4-b][1,4]thiazin-6-yl)-(R)-ethyl]-3-methyl-2-thienoyl-5-amino-L-glutamic acid]: the Kd in assay [1] is 1 nM.
In assay [1], `Cc1cc(C(=O)N[C@@H](CCC(=O)O)C(=O)O)sc1CCCSc1c(N)nc(N)[nH]c1=O` [Compound 2] came in with a Kd of 136 nM.
In assay [1], `Cc1cc(C(=O)N[C@@H](CCC(=O)O)C(=O)O)sc1CC[C@H]1CNc2nc(N)[nH]c(=O)c2S1` (single isomer, unassigned) [Compound 3] displayed an equilibrium dissociation constant (Kd) of 0.0042 nM. The “factor by which MTA reduced the growth inhibitory activity” value in assay [2] was “greater than 5”.
With `Cc1ccc(C)c(SC[C@H]2O[C@@H](n3cnc4c(N)ncnc43)[C@H](O)[C@@H]2O)c1` [2(G)(28)], at Human MTAP, the activity at 50 µM came out at 4% and the “MT-A—10: initial velocity as a percentage of the initial velocity with MTA as substrate” value stood at 6%.
The corresponding values for `C=CCSC[C@H]1O[C@@H](n2cnc3c(N)ncnc32)[C@H](O)[C@@H]1O` [2(G)(44), (2R, 3R, 4S, 5S)-2-(6-amino-9H-purin-9-yl)-5-[(allythio)methyl]tetra-hydrofuran-3,4-diol] are 82% and 77%.
The like results for `Nc1ccccc1SC[C@H]1O[C@@H](n2cnc3c(N)ncnc32)[C@H](O)[C@@H]1O` [2(G)(2), (2R, 3R, 4S, 5S)-2-(6-amino-9H-purin-9-yl)-5-{[(2-amino-phenyl)thio]methyl}tetrahydrofuran-3,4-diol] were, in that order, 5% and 3%.
The corresponding values for `Cc1occc1SC[C@H]1O[C@@H](n2cnc3c(N)ncnc32)[C@H](O)[C@@H]1O` [2(G)(37), (2R, 3R, 4S, 5S)-2-(6-amino-9H-purin-9-yl)-5-{[(2-methyl-3-furyl)thio]methyl}tetra-hydrofuran-3,4-diol] are 26% and 10%.
Regarding `Nc1ncnc2c1ncn2[C@@H]1O[C@H](CSc2ccc(Cl)c(Cl)c2)[C@@H](O)[C@H]1O` [2(G)(128), (2R, 3R, 4S, 5S)-2-(6-amino-9H-purin-9-yl)-5{[(3,4-dichlorophenyl)-thio]methyl}tetrahydro-furan-3,4-diol], at Human MTAP, the activity at 50 µM came out at 10.5% and the “MT-A—10: initial velocity as a percentage of the initial velocity with MTA as substrate” value was 11%.
The like results for `Cc1ccc(SC[C@H]2O[C@@H](n3cnc4c(N)ncnc43)[C@H](O)[C@@H]2O)c(C)c1` [2(G)(149), (2R, 3R, 4S, 5S)-2-(6-amino-9H-purin-9-yl)-5-{[(2,4-dimethylphenyl)-thio]methyl}tetrahydro-furan-3,4-diol] were, in that order, 2.5% and 35.5%.
`Cc1cc(C(=O)N[C@@H](CCC(=O)O)C(=O)O)sc1CC[C@H]1CNc2nc(N)[nH]c(=O)c2S1` [Compound 5, 4-[2-(2-Amino-4-oxo-4,6,7,8-tetrahydro-3H-pyrimido[5,4-b][1,4]thiazin-6-yl)-(S)-ethyl]-3-methyl-2-thienoyl-5-amino-L-glutamic acid] returned a Kd in assay [1] of 0.71 nM.
Turning to `Nc1ncnc2c1ncn2[C@@H]1O[C@H](CSCCCO)[C@@H](O)[C@H]1O` [2(G)(75)], on Human MTAP, the activity at 50 µM amounted to 39% and the “MT-A—10: initial velocity as a percentage of the initial velocity with MTA as substrate” value came to 32%.
The corresponding values for `CCCCCCCSC[C@H]1O[C@@H](n2cnc3c(N)ncnc32)[C@H](O)[C@@H]1O` [2(G)(125), (2R, 3R, 4S, 5S)-2-(6-amino-9H-purin-9-yl)-5-[(heptylthio)methyl]-tetrahydrofuran-3,4-diol] are 62.5% and 101%.
For `Nc1ncnc2c1ncn2[C@@H]1O[C@H](CSc2ccccc2C(F)(F)F)[C@@H](O)[C@H]1O` [2(G)(82), (2R, 3R, 4S, 5S)-2-(6-amino-9H-purin-9-yl)-5-({[2-(trifluoromethyl)-phenyl]thio}methyl)tetra-hydrofuran-3,4-diol], at Human MTAP, the activity at 50 µM was 1% and the “MT-A—10: initial velocity as a percentage of the initial velocity with MTA as substrate” value is reported as 1%.
Take `Nc1ncnc2c1ncn2[C@@H]1O[C@H](CSc2ccccc2[N+](=O)[O-])[C@@H](O)[C@H]1O` [2(G)(91), (2R, 3R, 4S, 5S)-2-(6-amino-9H-purin-9-yl)-5-{[(2-nitrophenyl)thio]-methyl}tetrahydrofuran-3,4-diol]: at Human MTAP, the activity at 50 µM was found to be 5% and the “MT-A—10: initial velocity as a percentage of the initial velocity with MTA as substrate” value amounted to 5%.
Take `Nc1ncnc2c1ncn2[C@@H]1O[C@H](CSc2ccc3ccccc3n2)[C@@H](O)[C@H]1O` [2(G)(42), (2R, 3R, 4S, 5S)-2-(6-amino-9H-purin-9-yl)-5-[(quinolin-2-ylthio)methyl]-tetrahydrofuran-3,4-diol]: on Human MTAP, the activity at 50 µM is 47% and the “MT-A—10: initial velocity as a percentage of the initial velocity with MTA as substrate” value was determined as 38%.
The like results for `COc1ccc2[nH]c(SC[C@H]3O[C@@H](n4cnc5c(N)ncnc54)[C@H](O)[C@@H]3O)nc2c1` [2(G)(118), (2R, 3R, 4S, 5S)-2-(6-amino-9H-purin-9-yl)-5-{[(5-methoxy-1H-benzimidazol-2-yl)thio]methyl}tetrahydrofuran-3,4-diol] were, in that order, 2.5% and 2.5%.
The corresponding values for `Nc1ncnc2c1ncn2[C@@H]1O[C@H](CSc2ccc(C(=O)O)cc2)[C@@H](O)[C@H]1O` [2(G)(95), 4-({[(2S, 3S, 4R, 5R)-5-(6-amino-9H-purin-9-yl)-3,4-dihydroxytetrahydro-furan-2-yl]methyl}thio)-benzoic acid] are 7% and 7%.
The like results for `Nc1ncnc2c1ncn2[C@@H]1O[C@H](CSc2cccc(Cl)c2Cl)[C@@H](O)[C@H]1O` [2(G)(151), (2R, 3R, 4S, 5S)-2-(6-amino-9H-purin-9-yl)-5-{[(2,3-dichlorophenyl)-thio]methyl}tetrahydro-furan-3,4-diol] were, in that order, 2% and 13.5%.
As to `Nc1ncnc2c1ncn2[C@@H]1O[C@H](CSc2cccc(C(F)(F)F)c2)[C@@H](O)[C@H]1O` [2(G)(99), (2R, 3R,4S, 5S)-2-(6-amino-9H-purin-9-yl)-5-({[3-(trifluoromethyl)-phenyl]thio}methyl)-tetrahydrofuran-3,4-diol], on Human MTAP, the activity at 50 µM stood at 18% and the “MT-A—10: initial velocity as a percentage of the initial velocity with MTA as substrate” value was determined as 17%.
The like results for `Nc1ncnc2c1ncn2[C@@H]1O[C@H](CSc2ccccc2C2=NCCCN2)[C@@H](O)[C@H]1O` [2(G)(1), (2R, 3R, 4S, 5S)-2-(6-amino-9H-purin-9-yl)-5-({[2-(1,4,5,6-tetrahydropyrimidin-2-yl)phenyl]thio}methyl)-tetrahydrofuran-3,4-diol] were, in that order, 23% and 8%.
Consider `CC1OCCC1SC[C@H]1O[C@@H](n2cnc3c(N)ncnc32)[C@H](O)[C@@H]1O` (stereo partly drawn) [2(G)(62), (2R, 3R, 4S, 5S)-2-(6-amino-9H-purin-9-yl)-5-{[(2-methyltetra-hydrofuran-3-yl)thio]methyl}tetrahydrofuran-3,4-diol], for which, at Human MTAP, the activity at 50 µM was found to be 7% and the “MT-A—10: initial velocity as a percentage of the initial velocity with MTA as substrate” value is reported as 6%.
